Assay results from ChEMBL document CHEMBL4342480, “Design of Dual Inhibitors of Soluble Epoxide Hydrolase and LTA4 Hydrolase” (ACS Med Chem Lett, 2020).
pIC50: −log10 of the molar value.

Columns and labels:
Macrophage [1] = assay: Antiinflammatory activity in Escherichia coli O6:K2:H1-induced human M1 macrophage assessed as change in 12-HETE level at 10 uM preincubated for 10 mins followed by Escherichia coli O6:K2:H1-stimulation and measured after 180 mins by UPLC-MS/MS analysis relative to control; format: functional
Macrophage [2] = assay: Antiinflammatory activity in Escherichia coli O6:K2:H1-induced human M2 macrophage assessed as change in 12-HETE level at 10 uM preincubated for 10 mins followed by Escherichia coli O6:K2:H1-stimulation and measured after 180 mins by UPLC-MS/MS analysis relative to control; format: functional
Macrophage [3] = assay: Antiinflammatory activity in Escherichia coli O6:K2:H1-induced human M1 macrophage assessed as change in 5-HETE level at 10 uM preincubated for 10 mins followed by Escherichia coli O6:K2:H1-stimulation and measured after 180 mins by UPLC-MS/MS analysis relative to control; format: functional
Macrophage [4] = assay: Antiinflammatory activity in Escherichia coli O6:K2:H1-induced human M2 macrophage assessed as change in 7-HDHA level at 1 uM preincubated for 10 mins followed by Escherichia coli O6:K2:H1-stimulation and measured after 180 mins by UPLC-MS/MS analysis relative to control; format: functional
Macrophage [5] = assay: Antiinflammatory activity in Escherichia coli O6:K2:H1-induced human M2 macrophage assessed as change in 15-HEPE level at 10 uM preincubated for 10 mins followed by Escherichia coli O6:K2:H1-stimulation and measured after 180 mins by UPLC-MS/MS analysis relative to control; format: functional
Macrophage [6] = assay: Antiinflammatory activity in Escherichia coli O6:K2:H1-induced human M2 macrophage assessed as change in 5.15-dlHETE level at 1 uM preincubated for 10 mins followed by Escherichia coli O6:K2:H1-stimulation and measured after 180 mins by UPLC-MS/MS analysis relative to control; format: functional
[7] = target: T1, Leukotriene A-4 hydrolase (Homo sapiens, UniProt P09960); assay: Inhibition of (His)6 tagged human recombinant LTA4H expressed in Escherichia coli BL21(DE3) using non-fluorescent L-arginine-7-amino-4-methylcoumarine as substrate preincubated for 30 mins followed by substrate addition and measured for 30 mins by fluorescence based assay
T1 sequence (P09960 whole entry): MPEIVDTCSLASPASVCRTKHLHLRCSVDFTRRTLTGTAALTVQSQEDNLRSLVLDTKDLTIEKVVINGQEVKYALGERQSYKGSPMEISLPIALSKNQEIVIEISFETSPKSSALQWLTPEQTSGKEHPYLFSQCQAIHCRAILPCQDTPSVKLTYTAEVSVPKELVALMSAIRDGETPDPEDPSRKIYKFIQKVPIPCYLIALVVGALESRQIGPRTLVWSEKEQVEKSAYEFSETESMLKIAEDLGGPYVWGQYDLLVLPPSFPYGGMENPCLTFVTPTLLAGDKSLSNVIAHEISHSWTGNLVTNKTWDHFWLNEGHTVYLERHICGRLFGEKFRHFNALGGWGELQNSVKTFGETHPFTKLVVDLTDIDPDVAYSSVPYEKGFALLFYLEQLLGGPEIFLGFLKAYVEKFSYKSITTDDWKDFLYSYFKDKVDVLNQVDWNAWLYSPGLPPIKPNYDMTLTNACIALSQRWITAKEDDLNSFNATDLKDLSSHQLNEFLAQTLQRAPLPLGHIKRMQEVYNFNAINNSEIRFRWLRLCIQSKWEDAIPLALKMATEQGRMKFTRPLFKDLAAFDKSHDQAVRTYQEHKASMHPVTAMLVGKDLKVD

O=C(Cc1ccc(Oc2nc3ccccc3s2)cc1F)NCCc1ccc(F)cc1
Activity (Macrophage [1]): 131% | Activity (Macrophage [2]): 114% | Activity (Macrophage [3]): 42% | Activity (Macrophage [4]): 94% | Activity (Macrophage [5]): 120% | Activity (Macrophage [6]): 93% | pIC50 [7]: 6.70
